Assay results reported in paper PMC8134461, “A physicochemical assessment of the thermal stability of dextrin–colistin conjugates” (Scientific Reports, 2021).
Structures can show the parent of a compound that is named as a salt. Positions of bridges follow the written chain, without caps; N, C: chain ends. Non-standard residues stand in square brackets, D forms with d. Residues, ends and D or L forms follow the SMILES beside them. *: point of attachment. X1 = CC[C@H](C)CCCCC(=O)*; Dab = NCC[C@H](N)C(=O)O

Key:
[1] = test system: V5 Escherichia coli AIM-1, V6 Klebsiella pneumoniae IR25 and V19 Acinetobacter baumannii 7789; assay: Antimicrobial activity after storage, MIC assay, statement over all test strains; assay type: cell-based; conditions: repeated freeze–thaw or storage in solution for up to 12 months at -20, 4 or 21 °C
Description: (§1) The clinical isolates (V5 Escherichia coli AIM-1, V6 Klebsiella pneumoniae IR25 and V19 Acinetobacter baumannii 7789) and susceptibility testing method have been previously described by Khan et al.[33] Bacterial colonies were grown on blood agar supplemented with 5% v/v defibrinated horse blood. Overnight cultures were prepared in tryptone soy broth (TSB) and Mueller–Hinton broth (MHB) was used for MIC determination (LabM; Bury, UK).
(§2) Three primary batches of colistin sulfate, CMS and dextrin-colistin conjugates were dissolved in PBS at 3 mg/mL and stored at − 20, 4, 21 and 37 °C for 0, 1, 3, 6, 9 and 12 months. In addition, to test the effect of repeated freeze–thaw on stability, a separate set of solutions were stored at − 20 °C and defrosted for 1 h at 20–22 °C weekly for 5 cycles. Samples were analyzed using FPLC (free drug) and GPC (saccharide release) and antimicrobial activity, UV/vis absorbance and protein content (bicinchoninic acid (BCA) assay) of the samples stored for 12 months was assessed.
The minimum inhibitory concentration (MIC) of colistin sulphate, CMS and dextrin-colistin conjugates was determined using the broth microdilution method in MH broth in accordance with standard guidelines. […] Results were expressed as mode (n = 3).

[2] = Stability during storage in PBS: saccharide release and elution profile by GPC; assay type: physicochemical; conditions: 3 mg/mL in PBS, up to 12 months; Ultrahydrogel 120, RI; CMS: after storage above -20 °C
Description: as §2
GPC was performed using an Ultrahydrogel guard column and two Ultrahydrogel 120 columns (7.8 mm × 300 mm) from Waters (Elstree, UK) in series, connected to a Jasco PU-1580 HPLC pump with PBS buffer eluent and a flow rate of 1 mL/min. Samples (300 μL) were injected into a 100 μL loop and the eluate was monitored using a Jasco MD-2010 multi-wavelength UV detector (210 and 280 nm) and a Gilson 153 differential refractometer (Middleton, WI, USA) connected to a Polymer Laboratories PL DataStream (Church Stretton, UK). Dual detection enabled distinction of dextrin and saccharide components that are not bound to colistin. Cirrus GPC software (version 3.2, 2006) from Polymer Laboratories (Church Stretton, UK) was used for data analysis. Glucose and maltose oligomers (DP 2, 3, 6 and 7) were employed for calibration. […]

[3] = test system: V5 Escherichia coli AIM-1; assay: MIC assay (broth microdilution) after storage; assay type: cell-based; conditions: 16–20 h, mode (n = 3), equivalent colistin concentration for conjugates; for MIC, Initial: before storage, 3 mg/mL in PBS, broth microdilution in MH broth; for MIC, storage temperature 4 °C: stored in PBS at 4 °C for 12 months; for MIC, storage temperature 4 °C / MIC, storage temperature 21 °C / MIC, storage temperature 37 °C / MIC, storage temperature -20 °C / MIC, repeat freeze–thaw: broth microdilution, MH broth; for MIC, storage temperature 21 °C: stored in PBS at 21 °C for 12 months; for MIC, storage temperature 37 °C: stored in PBS at 37 °C for 12 months; for MIC, storage temperature -20 °C: stored in PBS at -20 °C for 12 months; for MIC, repeat freeze–thaw: weekly freeze-thawing for 5 weeks (-20 °C, defrosted 1 h at 20–22 °C)
Description: as §1, §2
(§3) The minimum inhibitory concentration (MIC) of colistin sulphate, CMS and dextrin-colistin conjugates was determined using the broth microdilution method in MH broth in accordance with standard guidelines. Test organisms were suspended in MH broth (100 µL, 5 × 10^5 colony forming units (CFU)/mL) and incubated in 96-well microtitre plates in serial two-fold dilutions of the test compounds. The MIC was defined as the lowest concentration of test compound that produced no visible growth after 16–20 h. Results were expressed as mode (n = 3).

[4] = test system: V19 Acinetobacter baumannii 7789; assay type: cell-based; conditions: 16–20 h, mode (n = 3), equivalent colistin concentration for conjugates; for MIC, Initial: before storage, 3 mg/mL in PBS, broth microdilution in MH broth; for MIC, storage temperature 4 °C: stored in PBS at 4 °C for 12 months; for MIC, storage temperature 4 °C / MIC, storage temperature 21 °C / MIC, storage temperature 37 °C / MIC, storage temperature -20 °C / MIC, repeat freeze–thaw: broth microdilution, MH broth; for MIC, storage temperature 21 °C: stored in PBS at 21 °C for 12 months; for MIC, storage temperature 37 °C: stored in PBS at 37 °C for 12 months; for MIC, storage temperature -20 °C: stored in PBS at -20 °C for 12 months; for MIC, repeat freeze–thaw: weekly freeze-thawing for 5 weeks (-20 °C, defrosted 1 h at 20–22 °C)
Description: as §1, §2, §3

[5] = test system: V6 Klebsiella pneumoniae IR25; assay type: cell-based; conditions: 16–20 h, mode (n = 3), equivalent colistin concentration for conjugates; for MIC, Initial: before storage, 3 mg/mL in PBS, broth microdilution in MH broth; for MIC, storage temperature 4 °C: stored in PBS at 4 °C for 12 months; for MIC, storage temperature 4 °C / MIC, storage temperature 21 °C / MIC, storage temperature 37 °C / MIC, storage temperature -20 °C / MIC, repeat freeze–thaw: broth microdilution, MH broth; for MIC, storage temperature 21 °C: stored in PBS at 21 °C for 12 months; for MIC, storage temperature 37 °C: stored in PBS at 37 °C for 12 months; for MIC, storage temperature -20 °C: stored in PBS at -20 °C for 12 months; for MIC, repeat freeze–thaw: weekly freeze-thawing for 5 weeks (-20 °C, defrosted 1 h at 20–22 °C)
Description: as §1, §2, §3

| Compound | change of antimicrobial activity (MIC) after storage [1] | change of GPC elution profile after storage [2] | MIC, Initial [3] [µg/mL] | MIC, storage temperature 4 °C [3] [µg/mL] | MIC, storage temperature 21 °C [3] [µg/mL] | MIC, storage temperature 37 °C [3] [µg/mL] | MIC, storage temperature -20 °C [3] [µg/mL] | MIC, repeat freeze–thaw [3] [µg/mL] | MIC, Initial [4] [µg/mL] | MIC, storage temperature 4 °C [4] [µg/mL] | MIC, storage temperature 21 °C [4] [µg/mL] | MIC, storage temperature 37 °C [4] [µg/mL] | MIC, storage temperature -20 °C [4] [µg/mL] | MIC, repeat freeze–thaw [4] [µg/mL] | MIC, Initial [5] [µg/mL] | MIC, storage temperature 4 °C [5] [µg/mL] | MIC, storage temperature 21 °C [5] [µg/mL] | MIC, storage temperature 37 °C [5] [µg/mL] | MIC, storage temperature -20 °C [5] [µg/mL] | MIC, repeat freeze–thaw [5] [µg/mL] |
| --- | --- | --- | --- | --- | --- | --- | --- | --- | --- | --- | --- | --- | --- | --- | --- | --- | --- | --- | --- | --- |
| CC[C@H](C)CCCCC(=O)N[C@@H](CCN)C(=O)N[C@H](C(=O)N[C@@H](CCN)C(=O)N[C@H]1CCNC(=O)[C@H]([C@@H](C)O)NC(=O)[C@H](CCN)NC(=O)[C@H](CCN)NC(=O)[C@H](CC(C)C)NC(=O)[C@@H](CC(C)C)NC(=O)[C@H](CCN)NC1=O)[C@@H](C)O [Colistin sulfate, colistin sulfate] (X1-[Dab]T[Dab][Dab][Dab][dL]L[Dab][Dab]T; lactam 4-C (inferred); N-terminus assumed) | unaffected | largely unchanged | 0.004 | 0.002 | 0.016 | 0.25 | 0.002 | 0.004 | 0.063 | 0.031 | 0.125 | 32 | 0.063 | 0.063 | 0.125 | 0.125 | 0.5 | > 128 | 0.063 | 0.25 |
| Colistimethate sodium [CMS] | unaffected | Significant changes in the elution profile | 0.125 | 0.063 | 0.063 | 8 | 0.031 | 0.031 | 0.5 | 0.125 | 0.25 | 64 | 0.25 | 0.125 | 2 | 1 | 1 | 128 | 1 | 0.5 |
